Source: PubChem BioAssay (NCI)
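Test compounds were applied to cells in 96-well plates for 48 hours at 5 doses. GI50 marks 50% less growth. The concentration for full growth arrest is given as TGI.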

What was measured:
Experiment in all cases: inhibition of tumour cell growth, NCI panel, 48 h
[1] = tested on: 786-0 renal
[2] = tested on: A498 renal
[3] = tested on: A549 NSCLC
[4] = tested on: ACHN renal
[5] = tested on: BT-549 breast
[6] = tested on: CAKI-1 renal
[7] = tested on: CCRF-CEM leukemia
[8] = tested on: COLO 205 colon
[9] = tested on: DU-145 prostate
[10] = tested on: HCC-2998 colon
[11] = tested on: HCT-116 colon
[12] = tested on: HCT-15 colon
[13] = tested on: HL-60(TB) leukemia
[14] = tested on: HOP-62 NSCLC
[15] = tested on: HOP-92 NSCLC
[16] = tested on: HS 578T breast
[17] = tested on: HT29 colon
[18] = tested on: IGROV1 ovarian
[19] = tested on: K-562 leukemia
[20] = tested on: KM12 colon
[21] = tested on: LOX IMVI melanoma
[22] = tested on: M14 melanoma
[23] = tested on: MALME-3M melanoma
[24] = tested on: MCF7 breast
[25] = tested on: MDA-MB-231 breast
[26] = tested on: MDA-MB-435
[27] = tested on: MOLT-4 leukemia
[28] = tested on: NCI-H226 lung
[29] = tested on: NCI-H23 lung
[30] = tested on: NCI-H460 lung
[31] = tested on: NCI-H522 lung
[32] = tested on: NCI/ADR-RES ovarian
[33] = tested on: OVCAR-3 ovarian
[34] = tested on: OVCAR-4 ovarian
[35] = tested on: OVCAR-5 ovarian
[36] = tested on: OVCAR-8 ovarian
[37] = tested on: PC-3 prostate
[38] = tested on: RPMI-8226 leukemia
[39] = tested on: RXF 393 renal
[40] = tested on: SF-268 CNS
[41] = tested on: SF-295 CNS
[42] = tested on: SF-539 CNS
[43] = tested on: SK-MEL-2 melanoma
[44] = tested on: SK-MEL-28 melanoma
[45] = tested on: SK-MEL-5 melanoma
[46] = tested on: SK-OV-3 ovarian
[47] = tested on: SN12C renal
[48] = tested on: SNB-19 CNS
[49] = tested on: SNB-75 CNS
[50] = tested on: SR leukemia
[51] = tested on: SW-620 colon
[52] = tested on: T-47D breast
[53] = tested on: TK-10 renal
[54] = tested on: U251 CNS
[55] = tested on: UACC-257 melanoma
[56] = tested on: UACC-62 melanoma
[57] = tested on: UO-31 renal
[58] = tested on: EKVX NSCLC

## Cc1ccc2c(c1)c(C1=C(c3cn(C)c4ccccc34)C(=O)NC1=O)cn2C
[1]
  GI50: 5.21 µM
  TGI: > 22.8 µM
[2]
  GI50: 1.34 µM
  TGI: 6.14 µM
[3]
  GI50: 1.97 µM
  TGI: > 25 µM
[4]
  GI50: 3.09 µM
  TGI: > 23.4 µM
[5]
  GI50: 3.65 µM
  TGI: 11.1 µM
[6]
  GI50: 3.63 µM
  TGI: > 25 µM
[7]
  GI50: 1.32 µM
  TGI: 13.3 µM
[8]
  GI50: 1.49 µM
  TGI: 7.18 µM
[9]
  GI50: 6.73 µM
  TGI: 22.2 µM
[10]
  GI50: 9.25 µM
  TGI: > 25 µM
[11]
  GI50: 1.36 µM
  TGI: 10.2 µM
[12]
  GI50: 1.39 µM
  TGI: > 25 µM
[13]
  GI50: 1.33 µM
  TGI: 11.3 µM
[14]
  GI50: 3.17 µM
  TGI: > 25 µM
[15]
  GI50: 5.96 µM
  TGI: > 22.1 µM
[16]
  GI50: 0.595 µM
  TGI: 3.55 µM
[17]
  GI50: 1.01 µM
  TGI: 6.77 µM
[18]
  GI50: 5.23 µM
  TGI: > 14.9 µM
[19]
  GI50: 1.53 µM
  TGI: > 25 µM
[20]
  GI50: 1.92 µM
  TGI: 9.09 µM
[21]
  GI50: 2.93 µM
  TGI: > 23.4 µM
[22]
  GI50: 2.07 µM
  TGI: > 25 µM
[23]
  GI50: 4.4 µM
  TGI: > 21.4 µM
[24]
  GI50: 1.08 µM
  TGI: > 16.3 µM
[25]
  GI50: 6.93 µM
  TGI: > 25 µM
[26]
  GI50: 0.674 µM
  TGI: > 11.2 µM
[27]
  GI50: 2.56 µM
  TGI: 13.9 µM
[28]
  GI50: 3.57 µM
  TGI: 13 µM
[29]
  GI50: 4.9 µM
  TGI: > 25 µM
[30]
  GI50: 1.26 µM
  TGI: 9.01 µM
[31]
  GI50: 0.927 µM
  TGI: 12.2 µM
[32]
  GI50: 3.23 µM
  TGI: > 25 µM
[33]
  GI50: 0.904 µM
  TGI: 3.44 µM
[34]
  GI50: 3.79 µM
  TGI: > 21.8 µM
[35]
  GI50: 10.8 µM
  TGI: > 25 µM
[36]
  GI50: 5.3 µM
  TGI: > 25 µM
[37]
  GI50: 1.75 µM
  TGI: > 25 µM
[38]
  GI50: 2.19 µM
  TGI: 9.18 µM
[39]
  GI50: 1.54 µM
  TGI: 4.79 µM
[40]
  GI50: 3.09 µM
  TGI: > 25 µM
[41]
  GI50: 1.4 µM
  TGI: > 15.7 µM
[42]
  GI50: 1.11 µM
  TGI: 5.58 µM
[43]
  GI50: 1.42 µM
  TGI: 6.81 µM
[44]
  GI50: 4 µM
  TGI: > 22.5 µM
[45]
  GI50: 1.48 µM
  TGI: 5.07 µM
[46]
  GI50: 2.72 µM
  TGI: > 25 µM
[47]
  GI50: 3.12 µM
  TGI: 16.8 µM
[48]
  GI50: 8.15 µM
  TGI: > 25 µM
[49]
  GI50: 0.723 µM
  TGI: > 17.8 µM
[50]
  GI50: 0.966 µM
  TGI: 9.81 µM
[51]
  GI50: 1.16 µM
  TGI: > 25 µM
[52]
  GI50: 4 µM
  TGI: 20 µM
[53]
  GI50: 8.67 µM
  TGI: > 25 µM
[54]
  GI50: 1.52 µM
  TGI: > 25 µM
[55]
  GI50: 3.39 µM
  TGI: > 24.2 µM
[56]
  GI50: 1.35 µM
  TGI: 9.79 µM
[57]
  GI50: 2.77 µM
  TGI: 13.8 µM

## COc1ccc(/C=C/C(=O)c2ccc(NC(=O)CSc3nnc(-c4ccc(OC)c(OC)c4)n3-c3ccccc3)cc2)cc1
[1]
  GI50: 1.78 µM
  TGI: 3.66 µM
[2]
  GI50: 14.7 µM
  TGI: 28 µM
[3]
  GI50: 14.9 µM
  TGI: 31.7 µM
[4]
  GI50: 2.38 µM
  TGI: 6.1 µM
[5]
  GI50: 1.6 µM
  TGI: 3.49 µM
[7]
  GI50: 1.85 µM
  TGI: 5.36 µM
[8]
  GI50: 2.1 µM
  TGI: 4.56 µM
[9]
  GI50: 3.21 µM
  TGI: 10.8 µM
[58]
  GI50: 3.05 µM
  TGI: 14.6 µM
[10]
  GI50: 2.97 µM
  TGI: 10.1 µM
[11]
  GI50: 1.17 µM
  TGI: 2.66 µM
[12]
  GI50: 1.8 µM
  TGI: 4.27 µM
[13]
  GI50: 2.57 µM
  TGI: 11.8 µM
[14]
  GI50: 4.36 µM
  TGI: 19.4 µM
[15]
  GI50: 1.56 µM
  TGI: 3.45 µM
[16]
  GI50: 7.68 µM
  TGI: 54.3 µM
[17]
  GI50: 1.86 µM
  TGI: 3.58 µM
[19]
  GI50: 3.02 µM
  TGI: 10.8 µM
[20]
  GI50: 2.24 µM
  TGI: 5.54 µM
[21]
  GI50: 1.46 µM
  TGI: 2.99 µM
[22]
  GI50: 1.8 µM
  TGI: 3.9 µM
[23]
  GI50: 1.75 µM
  TGI: 3.49 µM
[24]
  GI50: 1.41 µM
  TGI: 5.14 µM
[25]
  GI50: 1.73 µM
  TGI: 3.65 µM
[26]
  GI50: 1.91 µM
  TGI: 4.13 µM
[27]
  GI50: 2.26 µM
  TGI: 9.14 µM
[28]
  GI50: 3.92 µM
  TGI: 24.3 µM
[29]
  GI50: 1.8 µM
  TGI: 4.01 µM
[30]
  GI50: 5.05 µM
  TGI: 18 µM
[31]
  GI50: 1.48 µM
  TGI: 3.17 µM
[32]
  GI50: 2.66 µM
  TGI: > 100 µM
[33]
  GI50: 1.72 µM
  TGI: 3.26 µM
[34]
  GI50: 1.96 µM
  TGI: 4.75 µM
[35]
  GI50: 14 µM
  TGI: 28.3 µM
[36]
  GI50: 3.09 µM
  TGI: 14.1 µM
[37]
  GI50: 3.09 µM
  TGI: 13.8 µM
[38]
  GI50: 1.72 µM
  TGI: 4.41 µM
[39]
  GI50: 1.66 µM
  TGI: 3.35 µM
[40]
  GI50: 1.89 µM
  TGI: 4.88 µM
[41]
  GI50: 12.2 µM
  TGI: 25.9 µM
[42]
  GI50: 1.8 µM
  TGI: 3.31 µM
[43]
  GI50: 5.03 µM
  TGI: 23.3 µM
[44]
  GI50: 5.78 µM
  TGI: 19.2 µM
[45]
  GI50: 1.81 µM
  TGI: 4.12 µM
[46]
  GI50: 13.1 µM
  TGI: 26.3 µM
[47]
  GI50: 2.25 µM
  TGI: 7.09 µM
[48]
  GI50: 3.5 µM
  TGI: 16.9 µM
[49]
  GI50: 2.6 µM
  TGI: 14.9 µM
[50]
  GI50: 0.724 µM
  TGI: 2.78 µM
[51]
  GI50: 1.96 µM
  TGI: 4.07 µM
[52]
  GI50: 2.54 µM
  TGI: 12.4 µM
[53]
  GI50: 14.6 µM
  TGI: 28.1 µM
[54]
  GI50: 1.75 µM
  TGI: 3.51 µM
[55]
  GI50: 12 µM
  TGI: 24.4 µM
[56]
  GI50: 2.26 µM
  TGI: 6.59 µM
[57]
  GI50: 1.48 µM
  TGI: 3.84 µM
